In article PMC12503906, “Novel Pyrazolo [1,5‐a]−1,3,5‐Triazine Derivatives as CDK7 Inhibitors: Synthesis and Biological Insights in Pancreatic Ductal Adenocarcinoma Models” (Chemmedchem, 2025):

Experiments:
[1] = test system: Bax/Bcl‐2; assay: Bax/Bcl‐2 ratio by RT‐PCR, PANC‐1 cells; type: cell-based
Procedure: (§1) In order to understand modulation of downstream genes of CDK7, gene expression analysis by qPCR was performed in all cell lines. Cells (5 × 10^5/well) were seeded in 6‐well plates and treated with the compounds 1b and 1g at 1× and 4 × IC50 concentrations. Cell lysates were collected 24 h post‐treatment using 300 µL of TRIzol Reagent (Ambion, 15,596,018) per well. Total RNA was extracted by mixing 60 µL of chloroform to the samples, incubating for 3 min and centrifuging at 12,000 rcf for 15 min at 4 °C. The upper aqueous phase containing RNA was transferred to a new Eppendorf and mixed with 120 µL of cold isopropanol in order to allow the RNA to precipitate. Samples were incubated at RT for 10 min and were then centrifuged at 12,000 rcf for 10 min at 4 °C. The isopropanol was carefully removed, and the pellet was washed twice with 70% ETOH. Pellets were left to air dry and consequently resuspended in RNAse‐free water. Samples were left agitation on a thermomixer at 55 °C for 10 min at 600 rpm and were then quantified through NanoDrop technology (Thermo Scientific, NanoDrop One/One^c). RNA samples were stored at −80 °C.
(§2) In order to perform cDNA synthesis, the First Strand cDNA synthesis kit (Thermo Scientific, K1612) was used. The previously isolated RNA was mixed with 1 µL of oligo dT18 primer into a pcr tube. Nuclease free water was added to reach a final volume of 11 µL. Samples were centrifuged at 1200 rcf for 5 min and were then placed on a thermomixer at 65 °C for a few minutes. A master mix was prepared, including 4 µL of 5× reaction buffer, 1 µL of ribolock RNAse inhibitor, 2 µL of dntp mix (10 mM), and 2 µL of M‐mulv reverse transcriptase for each sample. In total 9 µL of master mix were added to each vial. Samples were centrifuged again and were finally synthesized, following a cycle of 60 min at 37 °C and 5 min at 70 °C. cDNA was now finally synthesized and could be stored at −20 °C. RT‐PCRs reactions were performed using SYBR Green (Bio‐Rad, 1,725,271) (5 µL per sample), primer mix (0.3 µM) (2 µL per sample), and cDNA (10 ng µL^− ^1) (3 µL per sample). […] RT‐PCR assays were carried out in a GeneAmp 5700 Sequence Detection System programmed to hold at 50 °C for 30 min, to hold at 95 °C for 10 min, and to complete 45 cycles of 95 °C for […] and 50 °C for 1 min. The genes that were investigated are shown in Table 5 , with their respective forward and reverse primer sequences.

[2] = test system: SUIT 2.28; assay: Wound healing assay, SUIT 2.28; type: cell-based
Procedure: The wound healing assay was used to test the migratory ability of the selected cells post‐treatment. Cells (5 × 10^4 /well) were seeded on 96‐well. After 24 h, cells reached the optimal 100% confluency, and an artificial wound was created with a 96‐well Pintool Scratcher. The cells were immediately washed with complete medium, in order to remove cell debris after the scratch, and images of the wells were captured at time 0 h, right before the addition of the treatment. Each drug (1b and 1g) was previously diluted in the respective medium at two different concentrations: 1 × IC50 and 4 × IC50 (according to the cell specific IC50 value) and were then added to the cells. Images were then taken at timepoints 4, 8, 20, and 24 h using the Leica microscope with a JAI TMC‐137 camera to assess wound closure. The images were analyzed using the Universal Grab 6.3 software (DCILabs), and the obtained data were used to determine the percentage of migration of the cells, using the following formula. (2) % Migration=Mean width of the wound atT=0−Mean width of the wound atT=X/Mean width of the wound atT=0×100

[3] = molecular target: phosphorylated CDK7 (p‐CDK7) (Homo sapiens, UniProt P50613); assay: Phospho‐CDK7 (Thr170) cell‐based ELISA, PDAC3; design: endogenous in cells; host or cells: PDAC3 primary cells; conditions: PDAC3, 4 × IC50, ELISA
Procedure: To detect CDK7 and phospho‐CDK7 levels at Thr170 residue after treatment, an enzyme‐linked immunosorbent assay (Biomatik, Phospho‐CDK7 (Thr170) Colorimetric Cell‐Based ELISA Kit, Cat# EKA51274) was performed according to the manufacturer's protocols. […] The absorbance was read at 450 nm using a microplate reader.

[4] = test system: Bax/Bcl‐2; assay: Bax/Bcl‐2 ratio by RT‐PCR, PDAC3 cells; type: cell-based
Procedure: as §1, §2

[5] = test system: PATU‐T spheroids; assay: PATU‐T 3D spheroids, resazurin viability; type: cell-based; conditions: three cell densities, 1 × IC50 and 4 × IC50
Procedure: The modulation of the growth of spheroids was utilized as a method to assess the effect of the novel compounds 1b and 1g in a 3D structure. The PATU‐T cell line was employed to make such a structure. Agarose 1.5% is a solid gel at RT; thus, in order to become a liquid solution, it was heated up into a microwave for about 30 s—1 min, depending on when it starts boiling. Once heated up, the bottle containing the agarose was wrapped in aluminum foil, and it was allowed to maintain the temperature and the liquid state of the agarose. Each well of a flat‐bottom 96‐well plate was coated with 70 µL of agarose. Plates were left to cool down and dried for 1 h at RT. Afterward, 7 × 10^3, 1 × 10^4, and 2 × 10^4 cells/well (200 µL) were seeded in order to identify the optimal amount of cell for the spheroid formation. Finally, the plates were centrifuged at 1200 rpm for 6 min and placed in the incubator for 7 days at 37 °C, 5% CO2. After one week, spheroids were imaged at day 0 h with the inverted routine microscope Nikon Eclipse Ts2 and were consequently treated with compounds 1b and 1g at 4 × IC50 and 1 × IC50. In order to assess the effects of the treatment, images were then taken every 3 days, and medium along with treatment was refreshed at the same interval. […] Cells were then collected, counted, and reseeded in 96‐well plates. […] Absorbance was read at 570 nm.

Sequence of phosphorylated CDK7 (p‐CDK7) (P50613 2-346 limits assumed): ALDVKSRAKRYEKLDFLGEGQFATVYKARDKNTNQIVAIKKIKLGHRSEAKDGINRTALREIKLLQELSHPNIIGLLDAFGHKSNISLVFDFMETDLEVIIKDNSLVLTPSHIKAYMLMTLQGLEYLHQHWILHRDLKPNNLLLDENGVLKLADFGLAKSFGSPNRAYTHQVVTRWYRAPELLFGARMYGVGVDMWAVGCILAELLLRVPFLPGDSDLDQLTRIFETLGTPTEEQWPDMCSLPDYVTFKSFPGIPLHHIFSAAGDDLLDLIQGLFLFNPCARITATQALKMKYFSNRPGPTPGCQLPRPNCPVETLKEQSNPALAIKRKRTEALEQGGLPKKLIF
Sequence of phosphorylated CDK7 (p‐CDK7) (P51946 whole entry partner): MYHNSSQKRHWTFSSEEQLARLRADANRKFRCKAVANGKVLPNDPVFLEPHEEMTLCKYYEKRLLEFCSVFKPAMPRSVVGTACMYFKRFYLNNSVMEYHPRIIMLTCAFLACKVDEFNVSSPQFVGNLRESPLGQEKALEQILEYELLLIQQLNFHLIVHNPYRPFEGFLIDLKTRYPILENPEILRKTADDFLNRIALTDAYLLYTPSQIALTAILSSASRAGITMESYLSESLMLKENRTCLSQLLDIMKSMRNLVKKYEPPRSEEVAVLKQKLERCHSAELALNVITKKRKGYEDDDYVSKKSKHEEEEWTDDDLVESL
Sequence of phosphorylated CDK7 (p‐CDK7) (P51948 whole entry partner): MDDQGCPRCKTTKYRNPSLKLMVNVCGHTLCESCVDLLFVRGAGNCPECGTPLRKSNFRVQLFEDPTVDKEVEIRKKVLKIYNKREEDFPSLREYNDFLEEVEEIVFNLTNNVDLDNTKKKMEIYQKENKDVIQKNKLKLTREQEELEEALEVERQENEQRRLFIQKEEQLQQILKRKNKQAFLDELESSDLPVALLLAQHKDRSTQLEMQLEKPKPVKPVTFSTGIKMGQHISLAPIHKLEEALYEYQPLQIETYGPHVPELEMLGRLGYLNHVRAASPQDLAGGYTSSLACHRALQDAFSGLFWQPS

| Structure (SMILES) | Bax/Bcl‐2 ratio PANC‐1 ([1]; 1 × IC50, 24 h after treatment) | Bax/Bcl‐2 ratio PANC‐1 ([1]; 4 × IC50, 24 h after treatment) | inhibition of cell migration ([2]; SUIT 2.28, 1 × IC50 and 4 × IC50) | p‐CDK7 expression vs untreated [3] | Bax/Bcl‐2 ratio PDAC3 ([4]; 1 × IC50, 24 h after treatment) | Bax/Bcl‐2 ratio PDAC3 ([4]; 4 × IC50, 24 h after treatment) | cell viability compared to untreated controls (resazurin) [5] | inhibition of cell migration ([2]; SUIT 2.28, 1 × IC50) |
| --- | --- | --- | --- | --- | --- | --- | --- | --- |
| Nc1ncnc2cc(-c3c[nH]c4ccc(Br)cc34)nn12 [Compound 1b, 7‐(5‐Bromo‐1H‐indol‐3‐yl)pyrazolo[1,5‐a][1,3,5]triazin‐4‐amine] | 4.12 | 2.44 | strong inhibitory effects | decrease in p‐CDK7 expression | 0.44 | 0.01 | significantly reduced viability |  |
| Cn1cc(-c2cc3ncnc(N)n3n2)c2cc(Br)ccc21 [Compound 1g, 7‐(5‐Bromo‐1‐methyl‐1H‐indol‐3‐yl)pyrazolo[1,5‐a][1,3,5]triazin‐4‐amine] | 6.41 | 1.83 |  | decrease in p‐CDK7 expression | 0.36 | 0.38 | significantly reduced viability | greatest inhibition |
